{"source": "patent US20170121368A1", "about": "“NOVEL COMPOUNDS COMPRISING A BOMBESIN DERIVATIVE, A PROCESS FOR THE PREPARATION THEREOF AND A NUCLEAR MOLECULAR IMAGING AGENT COMPRISING THE SAME” (priority 2015, published 2017)", "origin": "cited, not measured here", "tested_on": "human prostate cancer model", "details": "68Ga label, PET, human prostate cancer model in laboratory mice", "note": "No end group written: not given here."}
{"substance": "GRP: Gastrin-releasing peptide labeled with 68Ga, literature PET study (VPLPAGGGTVLTKMYPRGNHWAVGHLM-NH2; ends and bridges not checked; also: 68Ga radiolabel; UniProt P07492 24-50, looked up)", "values": [{"measurement": "uptake rate", "value": 9.5, "unit": "% ID/g"}]}
